Literature values, collected in patent US5110799A, “Antiherpetic agents” (Merck & Co., Inc., priority 1989, dated 1992).

Target: ribonucleotide reductase enzyme of herpes simplex virus (Human herpesvirus 1, UniProt P08543)
Conditions: in vitro; Dutia et al., Cohen et al., U.S. Pat. No. 4,795,740

Chain of ribonucleotide reductase enzyme of herpes simplex virus (P08543 whole entry): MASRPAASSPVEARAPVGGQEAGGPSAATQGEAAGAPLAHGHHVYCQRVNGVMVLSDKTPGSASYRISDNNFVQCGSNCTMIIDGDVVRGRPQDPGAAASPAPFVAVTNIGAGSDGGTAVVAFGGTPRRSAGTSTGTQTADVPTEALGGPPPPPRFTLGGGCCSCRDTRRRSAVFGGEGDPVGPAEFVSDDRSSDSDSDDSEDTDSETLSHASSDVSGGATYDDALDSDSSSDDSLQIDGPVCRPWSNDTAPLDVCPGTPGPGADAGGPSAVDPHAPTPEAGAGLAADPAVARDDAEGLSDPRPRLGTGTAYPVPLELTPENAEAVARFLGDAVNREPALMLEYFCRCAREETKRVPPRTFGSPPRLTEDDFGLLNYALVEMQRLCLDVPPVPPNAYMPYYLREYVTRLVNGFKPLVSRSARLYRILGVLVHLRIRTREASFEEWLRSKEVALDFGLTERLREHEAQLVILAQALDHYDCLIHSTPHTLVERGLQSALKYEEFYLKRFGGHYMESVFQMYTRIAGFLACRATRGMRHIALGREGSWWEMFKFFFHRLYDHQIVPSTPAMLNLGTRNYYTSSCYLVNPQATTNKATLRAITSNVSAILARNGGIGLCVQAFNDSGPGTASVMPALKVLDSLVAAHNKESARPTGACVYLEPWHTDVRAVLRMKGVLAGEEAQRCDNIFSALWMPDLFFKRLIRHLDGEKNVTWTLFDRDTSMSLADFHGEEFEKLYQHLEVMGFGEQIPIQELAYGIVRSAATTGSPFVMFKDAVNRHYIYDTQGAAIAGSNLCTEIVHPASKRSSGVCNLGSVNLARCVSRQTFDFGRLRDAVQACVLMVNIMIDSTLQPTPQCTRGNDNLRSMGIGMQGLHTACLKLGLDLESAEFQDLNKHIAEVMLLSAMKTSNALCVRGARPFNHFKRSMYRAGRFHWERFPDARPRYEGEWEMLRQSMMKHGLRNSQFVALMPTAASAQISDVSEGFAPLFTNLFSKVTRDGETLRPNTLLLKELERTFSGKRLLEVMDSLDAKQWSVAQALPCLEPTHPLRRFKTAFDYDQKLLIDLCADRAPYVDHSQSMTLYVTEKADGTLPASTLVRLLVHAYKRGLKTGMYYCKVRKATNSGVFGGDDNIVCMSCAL

Row | Substance | inhibition of the activity of HSV ribonucleotide reductase
1 | Tyr gly Ala Val Val Asn Asp Leu | inhibited in vitro the activity of this enzyme
2 | Tyr Ala Gly Ala Val Val Asn Asp Leu | inhibited in vitro the activity of this enzyme
